Experimental findings from patent US20050019424A1, “Anti-angiogenesis combination therapies comprising pyridazine or pyridine derivatives” (priority 2001, published 2005) are described below.

The target in one assay is T1, CYP2C9 (Homo sapiens, UniProt P11712).
T1 construct: purchased GENTEST Corporation P258
The experiment in a line: Fluorometric cytochrome P450 inhibition assay, CYP2C9. Type of assay: in vitro ADME. As to conditions: cDNA-expressed human CYP2C9 Supersomes, substrate DBF, 5 point dose response; read-out: CYP2C9 Inh. IC50.

In another assay the target is CYP2D6 (Homo sapiens, UniProt P10635). The experiment in a line: biochemical.
Chain of CYP2D6 (P10635 whole entry): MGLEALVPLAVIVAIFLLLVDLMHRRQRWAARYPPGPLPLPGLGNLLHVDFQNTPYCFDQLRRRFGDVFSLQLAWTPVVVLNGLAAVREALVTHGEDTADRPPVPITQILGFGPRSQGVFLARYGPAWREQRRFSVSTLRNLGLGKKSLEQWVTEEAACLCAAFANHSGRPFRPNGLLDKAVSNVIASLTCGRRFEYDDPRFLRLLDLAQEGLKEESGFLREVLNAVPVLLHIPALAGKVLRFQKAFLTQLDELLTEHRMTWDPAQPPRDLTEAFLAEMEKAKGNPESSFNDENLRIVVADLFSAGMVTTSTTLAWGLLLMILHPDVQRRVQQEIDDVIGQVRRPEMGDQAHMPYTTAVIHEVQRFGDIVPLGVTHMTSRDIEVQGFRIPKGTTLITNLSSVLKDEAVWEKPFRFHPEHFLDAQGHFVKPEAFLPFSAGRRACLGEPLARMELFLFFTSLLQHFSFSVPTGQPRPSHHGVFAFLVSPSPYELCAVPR
The target of a further assay is CYP2C19 (Homo sapiens, UniProt P33261). The experiment in a line: biochemical.
Chain of CYP2C19 (P33261 whole entry): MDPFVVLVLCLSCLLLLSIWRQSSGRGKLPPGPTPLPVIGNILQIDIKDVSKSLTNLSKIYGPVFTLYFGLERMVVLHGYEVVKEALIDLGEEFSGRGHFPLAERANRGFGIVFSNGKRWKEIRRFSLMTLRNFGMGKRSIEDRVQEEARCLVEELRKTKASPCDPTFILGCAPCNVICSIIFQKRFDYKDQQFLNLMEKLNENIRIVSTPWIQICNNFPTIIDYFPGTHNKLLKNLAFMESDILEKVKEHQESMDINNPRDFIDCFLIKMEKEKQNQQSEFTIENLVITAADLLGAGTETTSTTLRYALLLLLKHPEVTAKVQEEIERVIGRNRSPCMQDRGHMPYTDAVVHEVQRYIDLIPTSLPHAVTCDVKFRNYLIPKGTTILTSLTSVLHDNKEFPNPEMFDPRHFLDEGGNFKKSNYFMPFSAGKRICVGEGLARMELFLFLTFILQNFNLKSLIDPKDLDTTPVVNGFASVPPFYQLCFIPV
In another assay the target is CYP3A4 (Homo sapiens, UniProt P08684). As to the kind of experiment: biochemical.
Chain of CYP3A4 (P08684 whole entry): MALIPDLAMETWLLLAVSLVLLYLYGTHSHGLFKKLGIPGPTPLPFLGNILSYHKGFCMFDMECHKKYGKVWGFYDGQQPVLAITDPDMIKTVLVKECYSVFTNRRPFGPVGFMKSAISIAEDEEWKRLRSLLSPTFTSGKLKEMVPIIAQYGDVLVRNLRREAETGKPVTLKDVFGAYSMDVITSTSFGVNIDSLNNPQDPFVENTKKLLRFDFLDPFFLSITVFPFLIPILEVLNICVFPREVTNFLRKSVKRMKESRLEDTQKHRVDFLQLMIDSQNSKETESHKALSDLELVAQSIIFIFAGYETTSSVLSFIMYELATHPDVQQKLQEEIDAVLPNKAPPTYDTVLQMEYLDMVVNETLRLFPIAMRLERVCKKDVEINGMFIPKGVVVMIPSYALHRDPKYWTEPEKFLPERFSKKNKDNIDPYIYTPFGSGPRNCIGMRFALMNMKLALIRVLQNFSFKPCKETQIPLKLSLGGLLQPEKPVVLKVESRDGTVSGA
The target of another assay is T2, CYP1A2 (Homo sapiens, UniProt P05177).
T2 sequence (P05177 1-516): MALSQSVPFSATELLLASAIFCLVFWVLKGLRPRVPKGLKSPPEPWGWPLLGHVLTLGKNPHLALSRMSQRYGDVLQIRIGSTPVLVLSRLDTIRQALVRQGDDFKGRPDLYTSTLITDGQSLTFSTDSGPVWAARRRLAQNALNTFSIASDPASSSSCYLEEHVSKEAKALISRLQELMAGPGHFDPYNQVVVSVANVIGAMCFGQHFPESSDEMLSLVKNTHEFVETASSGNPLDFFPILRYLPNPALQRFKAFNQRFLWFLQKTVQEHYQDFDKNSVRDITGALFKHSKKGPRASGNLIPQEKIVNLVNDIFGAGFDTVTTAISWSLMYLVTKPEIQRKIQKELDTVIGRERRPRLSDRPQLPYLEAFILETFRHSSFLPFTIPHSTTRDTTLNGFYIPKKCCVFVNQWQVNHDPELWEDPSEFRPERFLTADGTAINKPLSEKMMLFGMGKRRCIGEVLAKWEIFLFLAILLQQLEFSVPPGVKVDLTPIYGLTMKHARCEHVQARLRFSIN
As to the kind of experiment: biochemical.

T1 sequence (P11712 whole entry): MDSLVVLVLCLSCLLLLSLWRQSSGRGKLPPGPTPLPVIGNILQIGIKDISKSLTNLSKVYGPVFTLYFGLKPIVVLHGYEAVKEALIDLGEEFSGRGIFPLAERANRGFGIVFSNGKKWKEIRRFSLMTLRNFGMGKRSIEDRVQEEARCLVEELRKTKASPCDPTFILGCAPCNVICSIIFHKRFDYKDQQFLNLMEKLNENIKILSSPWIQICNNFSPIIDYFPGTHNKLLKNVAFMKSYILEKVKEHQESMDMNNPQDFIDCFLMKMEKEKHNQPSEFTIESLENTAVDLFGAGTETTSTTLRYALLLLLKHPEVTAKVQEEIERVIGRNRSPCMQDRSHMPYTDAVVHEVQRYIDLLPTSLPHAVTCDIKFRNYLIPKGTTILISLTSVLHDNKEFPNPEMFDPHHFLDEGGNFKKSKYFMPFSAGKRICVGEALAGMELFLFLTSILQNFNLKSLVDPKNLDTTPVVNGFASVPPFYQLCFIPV
Experimental for CYP1A2: (§1) The ability of the compounds described herein to inhibit cytochrome P450 activity was determined in vitro using cDNA-expressed human cytochrome P450 enzymes (Supersomes) obtained from GENTEST Corporation and various fluorescent probe substrates. Fluorometric Cytochrome P450 Inhibition assays were conducted in 96 well micotitre plates as described by GENTEST Corporation, Woburn Mass. […] Compounds were dissolved in 70% DMSO such that the concentration of DMSO in the assay was 0.7%. Varying concentrations of all test compounds (10 μM, 3 μM, 1 μM, 300 nM and 100 nM) were incubated with Supersomes individually expressing the five principal drug metabolizing cytochrome P450s, CYP1A2, 2C9, 2C19, 2D6, and 3A4 and their respective substrates. […] Incubations with known inhibitors of each P450 isoform were included as positive controls. Fluorescence per well was measured using a Spectramax Gemini XS (Molecular Devices) and IC50 values of the compounds tested were determined using the 5 point dose response. The sigmoidal dose response curves were generated by non linear regression using a four parameter logistic equation.
Experimental for CYP2C19: as §1
Experimental for CYP2C9: The ability of the compounds described herein to inhibit cytochrome P450 activity was determined in vitro using cDNA-expressed human cytochrome P450 enzymes (Supersomes) obtained from GENTEST Corporation and various fluorescent probe substrates. Fluorometric Cytochrome P450 Inhibition assays were conducted in 96 well micotitre plates as described by GENTEST Corporation, Woburn Mass. […] Compounds were dissolved in 70% DMSO such that the concentration of DMSO in the assay was 0.7%. […] Incubations with known inhibitors of each P450 isoform were included as positive controls. Fluorescence per well was measured using a Spectramax Gemini XS (Molecular Devices) and IC50 values of the compounds tested were determined using the 5 point dose response. The sigmoidal dose response curves were generated by non linear regression using a four parameter logistic equation.
Experimental for CYP2D6: as §1
Experimental for CYP3A4: as §1

As for `NC(=O)c1cc(Cc2nnc(Nc3ccc(Cl)cc3)c3ccccc23)ccn1`, the IC50 at CYP2C9 is over 20 µM; at CYP2D6 it was over 20 µM; against CYP2C19, 15 µM; at CYP3A4, 10 µM; at CYP1A2, over 20 µM.

For `CNC(=O)c1cc(Cc2nnc(Nc3ccc(Cl)cc3)c3ccccc23)ccn1`, the IC50 on CYP2C9 is 5.7 µM; against CYP2D6, over 20 µM; against CYP2C19, 11 µM; against CYP3A4, 2.2 µM; on CYP1A2 it was over 20 µM.

As to `NC(=O)c1cc(COc2nnc(Nc3ccc(Cl)cc3)c3ccccc23)ccn1`, the half-inhibitory concentration (IC50) on CYP2C9 amounted to 0.95 µM; against CYP2D6, 1.3 µM; against CYP2C19, 5.4 µM; against CYP3A4, 0.42 µM; against CYP1A2 it was 1.5 µM.

For the compound `CNC(=O)c1cc(COc2nnc(Nc3ccc(Cl)cc3)c3ccccc23)ccn1`, the IC50 on CYP2C9, against CYP2D6, against CYP2C19, against CYP3A4 and against CYP1A2 was over 20 µM in each case.

Regarding `Clc1ccc(NC2=NN=C(OCc3ccncc3)C3OC=CC23)cc1` (stereo not shown), the 50% inhibitory concentration (IC50) on CYP2C9 stood at 0.68 µM; on CYP2D6, 0.78 µM; at CYP2C19, 1.7 µM; on CYP3A4 it was 0.39 µM; at CYP1A2 it was 0.66 µM.

With `NC(=O)c1cc(COC2=NN=C(Nc3ccc(Cl)cc3)C3C=COC23)ccn1` (stereo not shown), the half-inhibitory concentration (IC50) at CYP2C9 is over 20 µM; against CYP2D6 it was over 20 µM; at CYP2C19 it was over 20 µM; at CYP3A4, 2.1 µM; against CYP1A2 it was 17 µM.

In the case of `CNC(=O)c1cc(COC2=NN=C(Nc3ccc(Cl)cc3)C3C=COC23)ccn1` (stereo not shown), the IC50 at CYP2C9 is over 20 µM; against CYP2D6, over 20 µM; on CYP2C19, over 20 µM; on CYP3A4, 19 µM; against CYP1A2, over 20 µM.

In the case of `CN(C)C(=O)c1cc(COC2=NN=C(Nc3ccc(Cl)cc3)C3C=COC23)ccn1` (stereo not shown), the IC50 was over 20 µM on CYP2C9; over 20 µM on CYP2D6; over 20 µM against CYP2C19; 11 µM against CYP3A4; 3.5 µM at CYP1A2.

As for `O=C(NC1CC1)c1cc(COC2=NN=C(Nc3ccc(Cl)cc3)C3C=COC23)ccn1` (stereo not shown), the IC50 is over 20 µM on CYP2C9; over 20 µM at CYP2D6; over 20 µM on CYP2C19; 3.3 µM against CYP3A4; over 20 µM on CYP1A2.

As for `Clc1ccc(NC2=NN=C(OCc3ccncc3)C3SC=CC23)cc1` (stereo not shown), the IC50 on CYP2C9 turned out to be 0.46 µM; against CYP2D6, 0.4 µM; on CYP2C19, 7.5 µM; at CYP3A4 it was 0.12 µM; at CYP1A2 it was 0.5 µM.

As for `NC(=O)c1cc(COC2=NN=C(Nc3ccc(Cl)cc3)C3C=CSC23)ccn1` (stereo not shown), the IC50 at CYP2C9 was 4.7 µM; at CYP2D6, 14 µM; against CYP2C19, over 20 µM; at CYP3A4, 1 µM; at CYP1A2, 3.3 µM.

As to `CNC(=O)c1cc(COC2=NN=C(Nc3ccc(Cl)cc3)C3C=CSC23)ccn1` (stereo not shown), the concentration for half-maximal inhibition (IC50) at CYP2C9, at CYP2D6, against CYP2C19, at CYP3A4 and against CYP1A2 was over 20 µM throughout.

With `Clc1ccc(Nc2ncc(Cc3ccncc3)c3ccccc23)cc1`, the IC50 on CYP2C9 was determined as 0.11 µM; against CYP2D6, 0.21 µM; against CYP2C19, 0.07 µM; at CYP3A4, 0.14 µM; on CYP1A2 it was 0.17 µM.

In the case of `NC(=O)c1cc(Cc2cnc(Nc3ccc(Cl)cc3)c3ccccc23)ccn1`, the concentration for half-maximal inhibition (IC50) on CYP2C9 worked out at 1.9 µM; on CYP2D6, 15 µM; on CYP2C19, 1.2 µM; against CYP3A4, 1.2 µM; against CYP1A2, 3.3 µM.

Turning to `CNC(=O)c1cc(Cc2cnc(Nc3ccc(Cl)cc3)c3ccccc23)ccn1`, the half-inhibitory concentration (IC50) on CYP2C9 was determined as 1.6 µM; on CYP2D6, 10 µM; against CYP2C19 it was 0.85 µM; at CYP3A4 it was 1.3 µM; at CYP1A2 it was 3.8 µM.

As to `Clc1ccc(Nc2nnc(Nc3ccc4ncsc4c3)c3sccc23)cc1`, the IC50 is 3.9 µM on CYP2C9; over 20 µM against CYP2D6; 9.9 µM at CYP2C19; over 20 µM at CYP3A4; over 20 µM on CYP1A2.

`CNC(=O)c1cc(COc2nnc(Nc3ccc(OC)cc3)c3ccoc23)ccn1`: the IC50 on CYP2C9 was over 20 µM; against CYP2D6 it was over 20 µM; against CYP2C19, over 20 µM; on CYP3A4, 1.8 µM; at CYP1A2, 4.2 µM.

`CNC(=O)c1cc(COc2nnc(Nc3ccc(F)cc3)c3ccoc23)ccn1`: the 50% inhibitory concentration (IC50) on CYP2C9, on CYP2D6, at CYP3A4 and against CYP1A2 was over 20 µM throughout.

Regarding `CNC(=O)c1cc(COc2nnc(Nc3cccc(C)c3)c3ccsc23)ccn1`, the IC50 on CYP2C9, on CYP2D6, at CYP3A4 and against CYP1A2 was over 20 µM throughout.

With `CNC(=O)c1cc(COc2nnc(Nc3ccc4c(c3)CCC4)c3ccoc23)ccn1`, the IC50 was 4 µM at CYP2C9; over 20 µM against CYP2D6; over 20 µM against CYP2C19; 0.48 µM at CYP3A4; 4.5 µM against CYP1A2.

With `CNC(=O)c1cc(COc2nnc(Nc3ccc4c(c3)OCC4)c3ccoc23)ccn1`, the IC50 at CYP2C9 was over 20 µM; against CYP2D6, over 20 µM; against CYP2C19, over 20 µM; at CYP3A4, 7.6 µM; at CYP1A2, 11 µM.

With `Clc1ccc(Nc2nnc(Cc3ccncc3)c3ccccc23)cc1` [WO 98/35958 (Example 4), reference compound], the 50% inhibitory concentration (IC50) at CYP2C9 stood at 0.65 µM; on CYP2D6, 0.33 µM; at CYP2C19, 0.24 µM; on CYP1A2 it was 1.49 µM.

On to `Clc1ccc(Nc2nnc(OCc3ccncc3)c3ccccc23)cc1` [WO 98/35958 (Example 50), reference compound], for which the IC50 was 0.29 µM on CYP2C9; 0.33 µM against CYP2D6; 0.79 µM against CYP2C19; 0.07 µM on CYP3A4; 0.24 µM against CYP1A2.
